Experimental findings from patent US12220395B2, “Intermittent endurance capacity improving agent or blood pH elevating agent” (AJINOMOTO CO., INC., priority 2018, dated 2025) are described below.

Molecules are shown by their SMILES.

In test [1] the test system is C57BL/6J male mice. The experiment in a line: mouse YO-YO test (intermittent endurance capacity, treadmill). The class given is in vivo. The following applies: 6-week-old mice; oral aqueous solution 1 to 2 g/kg; YO-YO test from 30 min after administration; compared to water (negative control); FIG. 1.
Description: After ingesting a test substance into 6-week-old C57BL/6J male mice, a mouse YO-YO test was conducted to evaluate an intermittent endurance capacity improving effect of the test substance using the intermittent endurance capacity of each individual as an index. As the test substance, 20 kinds of amino acids (or salts thereof) were used.
Preliminary running was performed on the mice one week before the main test. […] Unable to run was judged when the mouse could not keep up with the running speed. […] Grouping was performed such that the number of running sets and body weight of each individual obtained in the preliminary running were about the same for each group.
In the week following the preliminary running, the mice evaluated for the intermittent endurance capacity were orally administered with an aqueous solution containing a test substance in a dose of 1 to 2 g/kg mouse body weight, or water (negative control) at 20 mL/kg mouse body weight. […] From 30 min after the oral administration, the above-mentioned YO-YO test was performed to evaluate the effect of the test substance on the number of runnable sets of each individual. […]
The test system of test [2] is C57BL/6J male mice. The experiment in a line: increase in mouse plasma pH by oral administration. Particulars: for blood (plasma) pH increasing effect, time course: 7- to 9-week-old mice, aspartic acid 1 g/kg, blood sampled 30, 60, 120 min after administration, i-STAT, FIGS. 2 and 3.

Turning to `N[C@@H](CC(=O)O)C(=O)O` [aspartic acid], the “increase in the number of runnable sets (intermittent endurance capacity improving effect)” value in the test on C57BL/6J male mice [1] is reported as “significantly increased the number of runnable sets”. Moreover, the “blood (plasma) pH increasing effect, time course” value in the test with C57BL/6J male mice [2] is listed as “affords an effect of increasing blood pH even after 0.5 hr to 2 hr from the administration”. As to `O=C([O-])O.[Na+]` [sodium hydrogen carbonate], the “blood (plasma) pH increasing effect, time course” value with C57BL/6J male mice [2] is “the pH increasing effect disappeared rapidly thereafter”. Also, the “time of peak of the pH increasing effect” value in the test on C57BL/6J male mice [2] (plasma pH, mice, FIG. 2) came out at 0.5 hr. In the case of `N[C@@H](Cc1ccc(O)cc1)C(=O)O` [tyrosine], the “increase in the number of runnable sets (intermittent endurance capacity improving effect)” value in the test with C57BL/6J male mice [1] was “significantly increased the number of runnable sets”.
